Laboratory results reported in patent US10292989B2, “General anesthetics that are not neurotoxic” (University of Virginia Patent Foundation, priority 2014, dated 2019).

Key:
[1] = system: young adolescent rats (P20-29); experiment: Loss of righting reflex (LORR) in young adolescent rats, i.p.; type: in vivo; conditions: Rattus norvegicus, ip; rats of both sexes P20-29, i.p., 15% β-cyclodextrin; read-out: estimated ED50 for loss of righting reflex (LORR)
Protocol: (§2) For in vivo experiments, steroids were freshly dissolved in 15% β-cyclodextrin solution and injected intraperitoneally (i.p.) at escalating doses from 5 to 75 mg/kg.

[2] = system: adult female C57Bl/6 mice; experiment: Loss of righting reflex (LORR) in adult female C57Bl/6 mice, i.p.; type: in vivo, mouse
Protocol: as §2

[3] = system: adult naïve rats; experiment: Thermal paw withdrawal latency after i.t. injection in naive rats; type: in vivo, rat
Protocol: a. […] We began by studying the role of postsynaptic T-channels in DH neurons using current-clamp recording from unidentified lamina I-II DH neurons in spinal cord slices in vitro. To exclude synaptic currents, our external solution contained 20 μM picrotoxin, 50 μM d-APV and 5 μM NBQX to block inhibitory and excitatory synaptic currents, respectively. We first injected −300 pA of current via the recording electrode for 500 ms, which hyperpolarized the resting membrane potential (RMP) and allowed T-channels to recover from inactivation. This protocol served to assess input resistance (Rin) and to evoke rebound action potential (AP) firing. The top line in FIG. 3A depicts the protocol of current injection while bottom traces represent membrane responses. […] To investigate the possible role of T-channels in spinal nociceptive transmission in vivo, we used intrathecal (i.t.) injections and measured thermal nociceptive responses to noxious heat in adult naïve rats using methods as we described elsewhere (Messinger et al., 2009; Obradovic et al., 2014, PLoS ONE 9(4): e91467. doi:10.1371/journal.pone.0091467). For i.t. injections, rats were briefly anesthetized with 1.5-2% isoflurane and thermal paw withdrawal latencies (PWLs) were measured starting from 30 minutes following injection. […]

[4] = system: rats; experiment: Sensorimotor tests (inclined plane, platform, ledge); type: in vivo, rat; conditions: 16 μg i.t., 60 min after injection
Protocol: b. 3β-OH induces potent dose-dependent spinally-mediated analgesia in naïve rats. To assess its potential for spinally mediated analgesia, we injected 4 escalating doses of 3β-OH i.t. (from 0.003 to 16 μg) dissolved in 50 μL of vehicle (15% β-cyclodextrin) and measured thermal PWLs at 30 minutes intervals up to 150 minutes after injections. […] The analgesic effect was long-lasting, with higher doses of 3β-OH increasing PWLs by about 25-30% at 150 minutes post-injections. Note that PWLs remained stable in both paws during injections of vehicle (red lines). We also considered the possibility that i.t. injected 3β-OH may non-specifically affect performance by decreasing motor strength and/or coordination. […] Rats (n=6), were tested using an inclined plane, platform, and ledge before injection of the highest dose of 3β-OH (16 μg i.t.) and at 60 min after injection, corresponding to the time of maximal analgesia (FIG. 4).

[5] = system: rats with hind paw incision; experiment: Thermal hyperalgesia after plantar skin and deep tissue incision (PWL); type: in vivo, rat
Protocol: In order to study the potential role of neuroactive steroids in perioperative analgesia we used a model of a plantar incision of skin and deep tissue in the hind paw of rats. Starting 2 hours after operation, thermal hyperalgesia to nociceptive heat stimuli was assessed measuring thermal PWLs. As depicted in FIG. 5, thermal hyperalgesia is profound up to two days after surgery as evidenced by attenuated PWLs in incised (right) paws by about 70% when compared to unincised (left) paws in the same animals. This gradually resolved and returned to near preoperative baseline values within 7 days. Note that thermal PWLs in unincised paws remained stable during this period.
Next, we examined the ability of 3β-OH to influence thermal hyperalgesia in this rat model of perioperative pain. […] We applied the same dose of steroid or vehicle i.t. at 2, 24 and 48 hours after surgery and measured thermal PWLs in both paws (unincised paws, top panel of FIG. 6; incised paws, bottom panel of FIG. 6) at 30 minute intervals from 30-180 minutes after surgery in order to assess the time course and possible tolerance to any analgesic and antihyperalgesic effect of 3β-OH. FIG. 6 summarizes average results from multiple animals (6-13 per group). It is noteworthy that 3β-OH had little effect on thermal PWLs when compared to vehicle in incised paws when applied 2 hours after incision (bottom panel, filled round symbols) while in contralateral unincised paws (top panel, filled round symbols) the same dose induced analgesia at the 30 and 60 minute time points as evidenced by increased PWLs when compared to vehicle injections (top panel, filled circles). Furthermore, subsequent i.t. injections of 3β-OH at 24 hours (open squares) and 48 hours (filled triangles) induced long-lasting progressive anti-hyperalgesia in incised paws (bottom panel) with return of thermal PWLs to near baseline pre-incisional values measured at 180 minutes after injection (48 hours group). For example, at 48 hours post-surgery the average PWL of incised paws at 180 minutes post vehicle injection was about 4 seconds, while at 180 minutes post steroid injection PWLs were prolonged to about 9 seconds and approached pre-incisional values. In contrast, in unincised paws the same injections of 3β-OH induced analgesia of similar magnitude to the analgesia produced when steroid was injected 2 hours post-surgery, measuring in average 14-15 seconds on thermal PWLs (top panel).
We next tested the idea that locally applied 3β-OH may abolish thermal hyperalgesia after paw incision. For these experiments we first obtained baseline (pre-incision) thermal PWLs (about 10 seconds) and repeated measurements 2 hours after surgery (about 2.5 seconds). We then injected (arrow on FIG. 7A) directly into the incised paw either 16 μg or 48 μg of 3β-OH in 100 μl of saline that was pH adjusted to 7.4 (n=6 rats in each group). We recorded PWLs for three consecutive days after injections.
Note that PWLs in noninjected (unincised) paws (black squares and red diamonds) remained stable indicating lack of any systemic effect. […] For these experiments depicted on FIG. 7B, we first obtained pre-incision PWLs, and then injected 16 μg of 3β-OH repeatedly at the following time points: 2 hours, day 1, 2, 3 and 5 after post-surgery (n=6 rats). As shown on FIG. 7B (red symbols) repeated injections of steroid induced progressive anti-hyperalgesia from day 1 to day 5 post surgery with increase in PWLs from 50-90% when compared to PWLs in incised paws injected with vehicle (*, p<0.05; **, p<0.01; ***, p<0.001).

[6] = target: T1, recombinant human Cav2.3 channels (Homo sapiens, UniProt Q15878); experiment: Recombinant human Cav2.3 currents in HEK 293 cells; type: cell-based; conditions: HEK293, read-out: inhibition of recombinant Cav2.3 currents (of control pre-drug values)
T1 construct: expressed in transfected cells
Excerpt: Here, we examined the sensitivity of recombinant human Cav2.3 channels stably expressed in human embryonic kidney (HEK) 293 cells to 3β-OH.

[7] = system: adult monkeys; experiment: Acute anesthetic doses in adult monkeys, cardiac arrhythmias; type: in vivo, monkey; conditions: acute applications of anesthetic doses, preliminary study, data not shown
Excerpt: Although no preclinical data are currently available on the long-term use of 3β-OH, ECN, and related neuroactive steroids, previous evaluation of the safety of non-steroidal blockers of T-channels such as TTA compounds in dogs has disclosed no cardiovascular side effects.

[8] = Lethality (LD50) in PND7 rat pups; conditions: rat, in vivo, ip
[9] = system: rat pups (PND7); experiment: Lethality (LD50) in PND7 rat pups; conditions: LD50 vs ED50 for LORR
[10] = system: rats; experiment: 8-arm radial arm maze (RAM) after exposure at PND7; type: in vivo, rat
Protocol: (§1) To assess cognitive abilities of our rats we tested their spatial working memory using the 8-arm radial arm maze test (RAM). We began by comparing the overall appearance and daily weight of rats in each group (saline, cyclodextrin, 3β-OH at 10 mg/kg and ketamine at 40 mg/kg) since nutritional status and general state of health are critically important for cognitive development. Based on their general appearance, rats in different groups could not be distinguished from each other. Similarly, there was no difference in daily weight gain among the groups (FIG. 13A). The time points when the animals were treated (PND 7), food restricted (from PND 45), tested on the RAM (from PND 53) and permitted to eat ad libitum (from PND 70) are indicated on the graph. Food restriction, a necessary component of the RAM learning protocol, was limited so that no rat lost more than 10%-15% of its body weight.
To further scrutinize how the acquisition rate of 3β-OH-treated rats compares to ketamine and vehicle groups, we plotted the cumulative percent scores for ketamine-treated animals relative to recorded cumulative percent scores for other groups, using a percent-percent plot (p-p plot) (FIG. 14). […] The learning behavior of 3β-OH-treated rats is similar to that of sham controls resulting in a large gap (shaded area) in learning ability between ketamine-treated (lower blue dotted line) and 3β-OH-treated animals (upper red dotted line). A slight slowing in the acquisition rate observed with 3β-OH-treated rats when compared to vehicle controls (saline—SAL and cyclodextrin—CYCL) during the mid-portion of training (as discussed in FIG. 13C) is highlighted with rectangles.

[11] = Daily weight gain after exposure at PND7; type: in vivo, rat; conditions: 3β-OH at 10 mg/kg, ketamine at 40 mg/kg, treated PND 7
Protocol: as §1

[12] = target: T2, T-channels in rat DRG neurons (Rattus norvegicus, UniProt Q9EQ60); conditions: cited from earlier work
T2 construct: endogenous in cells; host or cells: acutely dissociated rat DRG neurons

[13] = system: T-currents in nucleus reticularis thalami (nRT); conditions: cited from earlier work
[14] = system: GABAA currents; conditions: cited from earlier work
[15] = system: NMDA currents; conditions: cited from earlier work
[16] = system: rat pups (PND7); experiment: Loss of righting reflex (LORR) in PND7 rat pups, i.p.
[17] = system: activated caspase-3 in developing brain; experiment: Activated caspase-3 staining of vulnerable brain regions in PND7 rat pups

T2 sequence (Q9EQ60 whole entry): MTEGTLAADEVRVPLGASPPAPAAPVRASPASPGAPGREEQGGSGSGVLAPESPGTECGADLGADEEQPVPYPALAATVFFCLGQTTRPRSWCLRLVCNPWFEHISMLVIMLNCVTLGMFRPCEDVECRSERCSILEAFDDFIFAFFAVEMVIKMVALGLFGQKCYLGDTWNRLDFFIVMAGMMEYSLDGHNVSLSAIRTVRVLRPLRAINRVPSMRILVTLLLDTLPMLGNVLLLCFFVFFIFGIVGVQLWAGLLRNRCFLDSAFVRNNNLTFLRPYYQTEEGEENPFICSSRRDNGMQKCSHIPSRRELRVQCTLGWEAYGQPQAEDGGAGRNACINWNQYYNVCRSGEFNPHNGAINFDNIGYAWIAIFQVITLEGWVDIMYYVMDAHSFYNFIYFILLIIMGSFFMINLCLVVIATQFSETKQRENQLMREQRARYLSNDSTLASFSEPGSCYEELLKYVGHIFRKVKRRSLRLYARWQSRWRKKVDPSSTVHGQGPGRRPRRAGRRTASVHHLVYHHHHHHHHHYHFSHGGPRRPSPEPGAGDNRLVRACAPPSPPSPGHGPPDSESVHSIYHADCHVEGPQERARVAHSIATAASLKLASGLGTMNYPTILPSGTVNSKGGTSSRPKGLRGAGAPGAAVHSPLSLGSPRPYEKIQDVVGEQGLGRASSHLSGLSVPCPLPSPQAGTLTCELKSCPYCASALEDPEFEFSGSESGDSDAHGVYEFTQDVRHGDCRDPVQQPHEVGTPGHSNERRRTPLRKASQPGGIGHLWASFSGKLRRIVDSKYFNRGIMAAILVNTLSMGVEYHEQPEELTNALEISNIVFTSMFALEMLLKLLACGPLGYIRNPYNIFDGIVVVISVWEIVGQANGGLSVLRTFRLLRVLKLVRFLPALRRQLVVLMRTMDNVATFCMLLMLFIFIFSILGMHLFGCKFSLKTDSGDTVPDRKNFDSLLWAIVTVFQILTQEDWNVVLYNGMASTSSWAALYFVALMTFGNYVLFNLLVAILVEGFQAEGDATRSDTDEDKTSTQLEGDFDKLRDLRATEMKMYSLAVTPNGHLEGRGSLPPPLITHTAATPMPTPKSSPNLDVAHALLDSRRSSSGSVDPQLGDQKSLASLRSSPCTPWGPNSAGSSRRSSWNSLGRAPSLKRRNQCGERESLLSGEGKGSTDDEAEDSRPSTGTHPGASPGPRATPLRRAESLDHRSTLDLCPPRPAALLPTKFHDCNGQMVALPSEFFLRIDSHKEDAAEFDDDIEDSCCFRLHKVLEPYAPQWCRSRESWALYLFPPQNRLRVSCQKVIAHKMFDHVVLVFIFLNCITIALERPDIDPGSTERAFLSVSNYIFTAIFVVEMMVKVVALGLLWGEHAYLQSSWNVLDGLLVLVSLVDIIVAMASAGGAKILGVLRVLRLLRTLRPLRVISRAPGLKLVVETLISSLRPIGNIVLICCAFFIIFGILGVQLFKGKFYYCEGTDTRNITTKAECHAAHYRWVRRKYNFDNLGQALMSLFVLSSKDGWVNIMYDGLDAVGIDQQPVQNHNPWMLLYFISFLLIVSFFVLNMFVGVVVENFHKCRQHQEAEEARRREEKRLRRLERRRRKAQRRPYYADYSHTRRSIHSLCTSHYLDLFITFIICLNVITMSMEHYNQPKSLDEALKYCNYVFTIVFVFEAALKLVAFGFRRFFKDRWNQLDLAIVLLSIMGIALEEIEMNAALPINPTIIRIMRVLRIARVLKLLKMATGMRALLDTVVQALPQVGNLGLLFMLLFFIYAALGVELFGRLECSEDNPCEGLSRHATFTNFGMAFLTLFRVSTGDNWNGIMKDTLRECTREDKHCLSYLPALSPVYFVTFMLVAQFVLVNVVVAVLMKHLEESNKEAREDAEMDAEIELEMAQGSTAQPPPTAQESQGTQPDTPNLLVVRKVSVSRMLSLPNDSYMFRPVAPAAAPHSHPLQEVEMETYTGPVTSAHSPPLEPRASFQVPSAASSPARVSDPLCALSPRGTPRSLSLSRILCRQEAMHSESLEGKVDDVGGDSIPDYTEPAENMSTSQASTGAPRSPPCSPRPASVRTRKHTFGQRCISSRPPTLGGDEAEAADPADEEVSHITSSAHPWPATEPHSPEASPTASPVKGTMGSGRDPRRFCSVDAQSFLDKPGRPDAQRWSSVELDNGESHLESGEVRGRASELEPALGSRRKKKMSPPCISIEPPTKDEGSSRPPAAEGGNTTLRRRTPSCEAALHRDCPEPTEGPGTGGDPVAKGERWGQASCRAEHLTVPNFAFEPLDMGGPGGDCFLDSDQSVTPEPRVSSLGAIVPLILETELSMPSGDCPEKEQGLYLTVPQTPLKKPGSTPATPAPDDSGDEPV
T1 sequence (Q15878 whole entry): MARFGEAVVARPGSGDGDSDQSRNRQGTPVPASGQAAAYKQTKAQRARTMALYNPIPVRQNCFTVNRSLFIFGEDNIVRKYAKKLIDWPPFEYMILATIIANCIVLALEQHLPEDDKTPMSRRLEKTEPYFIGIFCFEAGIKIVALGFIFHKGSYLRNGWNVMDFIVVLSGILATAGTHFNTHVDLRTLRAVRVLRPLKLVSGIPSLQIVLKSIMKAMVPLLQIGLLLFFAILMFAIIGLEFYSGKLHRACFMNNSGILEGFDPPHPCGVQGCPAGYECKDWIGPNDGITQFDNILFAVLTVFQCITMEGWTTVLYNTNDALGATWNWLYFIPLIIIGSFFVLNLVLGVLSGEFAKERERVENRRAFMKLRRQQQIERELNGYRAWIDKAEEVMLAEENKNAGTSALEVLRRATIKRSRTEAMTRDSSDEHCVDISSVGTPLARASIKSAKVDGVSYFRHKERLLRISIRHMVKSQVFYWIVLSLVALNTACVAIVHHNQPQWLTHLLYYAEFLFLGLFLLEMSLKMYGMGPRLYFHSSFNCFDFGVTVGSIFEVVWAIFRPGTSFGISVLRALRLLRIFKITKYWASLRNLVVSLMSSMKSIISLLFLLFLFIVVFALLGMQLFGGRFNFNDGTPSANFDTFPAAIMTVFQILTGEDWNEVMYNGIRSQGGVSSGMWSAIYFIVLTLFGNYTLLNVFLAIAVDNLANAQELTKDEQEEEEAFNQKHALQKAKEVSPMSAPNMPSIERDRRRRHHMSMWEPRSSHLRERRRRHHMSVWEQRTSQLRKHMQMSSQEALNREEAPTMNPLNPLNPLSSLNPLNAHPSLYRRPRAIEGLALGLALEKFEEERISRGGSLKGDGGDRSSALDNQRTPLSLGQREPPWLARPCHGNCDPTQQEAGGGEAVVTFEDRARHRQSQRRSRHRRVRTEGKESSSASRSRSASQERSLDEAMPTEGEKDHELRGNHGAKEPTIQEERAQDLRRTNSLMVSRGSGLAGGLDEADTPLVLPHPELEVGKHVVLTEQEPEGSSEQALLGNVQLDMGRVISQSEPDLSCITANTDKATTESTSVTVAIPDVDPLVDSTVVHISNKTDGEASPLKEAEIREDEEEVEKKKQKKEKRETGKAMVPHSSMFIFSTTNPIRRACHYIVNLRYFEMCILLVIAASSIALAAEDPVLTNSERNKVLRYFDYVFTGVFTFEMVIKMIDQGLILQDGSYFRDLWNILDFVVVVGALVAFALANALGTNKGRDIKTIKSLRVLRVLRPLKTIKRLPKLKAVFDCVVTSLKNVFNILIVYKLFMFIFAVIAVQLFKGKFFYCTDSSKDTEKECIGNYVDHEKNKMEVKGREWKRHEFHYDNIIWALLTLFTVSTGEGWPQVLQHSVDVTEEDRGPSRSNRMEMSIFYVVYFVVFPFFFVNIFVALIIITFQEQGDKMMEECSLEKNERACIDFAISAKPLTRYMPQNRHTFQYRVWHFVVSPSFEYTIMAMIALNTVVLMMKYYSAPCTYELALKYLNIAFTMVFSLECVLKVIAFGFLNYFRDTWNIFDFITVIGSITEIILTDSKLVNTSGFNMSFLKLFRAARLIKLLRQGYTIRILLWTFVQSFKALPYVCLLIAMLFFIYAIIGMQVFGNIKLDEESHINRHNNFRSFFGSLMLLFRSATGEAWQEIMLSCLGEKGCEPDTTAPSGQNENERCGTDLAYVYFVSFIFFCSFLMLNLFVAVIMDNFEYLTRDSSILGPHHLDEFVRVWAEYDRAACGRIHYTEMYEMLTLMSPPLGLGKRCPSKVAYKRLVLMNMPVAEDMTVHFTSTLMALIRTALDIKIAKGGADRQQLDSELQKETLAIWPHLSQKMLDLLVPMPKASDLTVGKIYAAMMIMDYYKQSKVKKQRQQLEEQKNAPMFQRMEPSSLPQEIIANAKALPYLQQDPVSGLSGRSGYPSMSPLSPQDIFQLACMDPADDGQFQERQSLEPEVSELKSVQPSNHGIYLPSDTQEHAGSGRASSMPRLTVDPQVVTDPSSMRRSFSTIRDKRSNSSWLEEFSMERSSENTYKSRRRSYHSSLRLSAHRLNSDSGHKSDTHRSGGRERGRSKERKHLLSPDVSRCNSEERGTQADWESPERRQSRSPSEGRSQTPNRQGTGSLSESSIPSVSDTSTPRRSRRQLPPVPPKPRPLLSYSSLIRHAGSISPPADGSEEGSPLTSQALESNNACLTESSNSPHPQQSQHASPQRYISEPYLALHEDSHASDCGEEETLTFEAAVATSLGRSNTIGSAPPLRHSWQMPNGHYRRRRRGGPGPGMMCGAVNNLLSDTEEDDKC
T1 sequence (P54284 whole entry partner): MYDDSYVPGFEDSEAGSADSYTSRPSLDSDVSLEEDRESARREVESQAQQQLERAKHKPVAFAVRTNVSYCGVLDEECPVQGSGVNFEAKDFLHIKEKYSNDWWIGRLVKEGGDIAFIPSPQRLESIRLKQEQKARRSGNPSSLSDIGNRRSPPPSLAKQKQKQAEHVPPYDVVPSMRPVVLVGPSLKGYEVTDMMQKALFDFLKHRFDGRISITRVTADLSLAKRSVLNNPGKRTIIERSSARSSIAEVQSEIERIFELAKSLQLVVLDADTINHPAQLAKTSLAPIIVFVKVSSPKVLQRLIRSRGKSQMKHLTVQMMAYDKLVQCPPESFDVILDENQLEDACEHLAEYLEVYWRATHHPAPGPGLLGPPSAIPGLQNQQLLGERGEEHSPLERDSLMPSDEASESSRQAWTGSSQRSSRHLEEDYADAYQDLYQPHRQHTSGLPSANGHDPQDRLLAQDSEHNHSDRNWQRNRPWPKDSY

## C[C@]12CC[C@H](O)C[C@H]1CC[C@@H]1[C@@H]2CC[C@]2(C)[C@@H](C#N)CC[C@@H]12 [3β-OH, (3β,5β,17β)-3-hydroxyandrostane-17-carbonitrile]
[1]
  ED50: 16 ± 0.4 mg/kg
[2]; 75 mg/kg dose
  duration of LORR: up to 50 min
[2]; Mus musculus, ip, adult female C57Bl/6 mice
  ED50: 46 ± 2 mg/kg
[3]; i.t. 0.003 to 16 μg, 60 minutes post-injection
  prolongation of PWLs over pre-injection baseline: up to 80%
[3]; i.t., higher doses, 150 minutes post-injection
  increase of PWLs: 25-30%
[4]
  sensorimotor responses after vs before injection: did not differ significantly
[5]; 16 μg i.pl. repeated at 2 hours, day 1, 2, 3 and 5, day 1 to day 5
  increase in PWLs compared to incised paws injected with vehicle: 50-90%
[5]; 16 μg i.pl. single injection, day 1 after incision
  thermal PWL of incised paw: about 6 seconds
[5]; 16 μg i.pl. single injection, day 2
  thermal PWL of incised paw vs vehicle: not significantly different
[5]; 16 μg i.t. applied 2 hours after incision
  effect on thermal PWLs vs vehicle in incised paws: little effect
[5]; 16 μg i.t. at 24 and 48 hours post-surgery
  thermal PWL of unincised paws: 14 to 15 s
[5]; 16 μg i.t., 48 hours post-surgery, 180 minutes post injection, vehicle about 4
  thermal PWL of incised paws: about 9 seconds
[5]; 48 μg i.pl. single injection, day 1 post incision
  thermal PWL of incised paw: about 6.5 seconds
[5]; 48 μg i.pl. single injection, day 2 post incision
  thermal PWL of incised paw: about 7 seconds
[5]; data not shown
  time after surgery for which hyperalgesia is reduced: at least 48 hours
[6]
  inhibition at 3 µM: 38 ± 4%
[7]
  cardiac arrhythmias: did not notice cardiac arrhythmias
[8]
  LD50: 61.9 ± 4.6 mg/kg
[9]
  therapeutic index: about 22
[10]; 3β-OH at 10 mg/kg, ketamine at 40 mg/kg at PND 7, tested from PND 53
  days required to reach learning criterion in RAM: indistinguishable from vehicle animals
[10]; p-p plot
  rats reaching criterion in the allotted time: 100%
[10]; rat, in vivo
  rats that had reached criterion at the same point of training (p-p plot): roughly half
[11]
  daily weight gain among the groups: no difference
[12]; DRG neurons
  maximal block of T-current: 100%
[12]; acutely dissociated DRG cells, read-out: IC50, block of T-currents in DRG cells
  IC50: 3000 nM
[13]
  IC50: 2000 nM
[14]
  effect on GABAA currents: devoid of any direct effects
[15]
  effect on postsynaptic NMDA currents: devoid of any direct effects
[16]; PND7 rat pups, i.p.
  calculated EC50 (duration of LORR): 34.5 ± 3.7 mg/kg
[16]; Rattus norvegicus, ip, read-out: calculated ED50 for LORR
  ED50: 2.9 ± 0.28 mg/kg
[16]; i.p., based on LORR
  equipotent dose comparable to ketamine 40 mg/kg: 10 mg/kg
  equipotent single dose comparable to ketamine 20 mg/kg: 5 mg/kg
[17]; 5 mg/kg i.p. every hour, six doses, all examined regions except subiculum
  apoptotic (caspase-3) activation compared with vehicle: did not cause significant apoptotic activation
[17]; 10 mg/kg vs 5 mg/kg i.p., 6 doses hourly
  caspase-3 activation, twice higher dose compared with lower dose: small increase
[17]; 3β-OH 10 mg/kg or ketamine 40 mg/kg i.p., 6 doses hourly, 3β-OH: except subiculum
  caspase-3 activation at higher dose compared with vehicle: no significant increase
